Measured values: patent publication US20210100905A1, “APPLICATION OF COMPOUND OR TRADITIONAL CHINESE MEDICINE EXTRACT IN PREPARATION OF NUCLEIC ACID DELIVERY AGENT, AND RELATED PRODUCTS” (INSTITUTE OF BASIC MEDICAL SCIENCES CHINESE ACADEMY OF …, priority 2018, published 2021)

Experiment: In vivo delivery experiment of lipid nucleic acid mixture (Example 13)
Parameters: species or system C57 mice
Details: oral administration, 6 hours; for delivery effect into mouse blood and tissues (heart, spleen, kidney or intestine) compared with POPC: FIG. 117a-146b, 100 μg lipid : 1 nmol sRNA; for delivery of small RNA (PGY-sRNA-26) into blood / delivery of small RNA (PGY-sRNA-26) into heart / delivery of small RNA (PGY-sRNA-26) into kidney / delivery of small RNA (PGY-sRNA-26) into intestine / delivery of small RNA (PGY-sRNA-26) into spleen: 100 μg lipid : 1 nmol sRNA per mouse, 90° C. 15 min
Method: 1. Experiment animals: C57 mice, male, approximately 6 weeks old, 20-24g. Mice were raised in the SPF room of the Animal Center of the Institute of Basic Medical Sciences of Chinese Academy of Medical Sciences. The mice were fasted for 12 hours before intragastric administration.
2. Preparation of the mixture of lipid and small RNA: the prepration was conducted on the basis of a dose of 100 μg lipid: lnmol single stranded small RNA PGY-sRNA-26 per mouse as follows: lnmol of each sRNA was dissolved with 500 μl DEPC water in a glass tube, 100 μg corresponding lipid solution No.33, No.35,No.37, No.42, No.43, No.44, No.45, No.46, No.47, No.48, No.49, No.50, No.51, No.52, No.53, No.54, No.55, No.56, No.57, No.58, No.59, No.60, No.61, No.62, No.65, No.66, No.67, No.68, No.69 or No.70 (lipid chloroform solution with a concentration as shown in Table 1-1) was added, pipetted to mix thoroughly. The solution was heated in water bath at 90° C. for 15 min, naturally cooled down, and was administered via gavage.
1) Tissue sampling and extraction of RNA: 6 hours after gavage in mice, 500 μl of blood was taken from the eyeball, and was added 1.5 ml Trizol Reagent LS to thoroughly mix and lyse. Tissue sampling: the mouse was sarcrified by breaking its neck, and the thoracic and abdominal cavities of the mouse was exposed to remove the heart/whole spleen/two kidneys/intestine (5 cm of upper end), which was immediately added 2 ml Trizol Reagent (purchased from Invitrogen) and homogenized until complete lysis with a tissue homogenizer.
2) Reverse transcription of sRNA to cDNA: Reverse Transcription Kit (High-Capacity cDNA Reverse Transcription Kits, Applied Biosystems, cat. no. 4368813), was used to reverse transcribe the total RNA to cDNA, and the reverse system was as follows: template RNA (150 ng/μL) 10 μL, 10× RT buffer, 2.0 μL, 25× dNTP Mix (100 mM) 0.8 μL, random primers 2.0 μL, the Multi Scribe™ reverse Transcriptase 1.0 RNase inhibitor 1.0 μL, nuclease-free H2O 3.2 μL. After a brief centrifugation, the reaction was loaded in a PCR reactor. The reaction conditions were as follows: (1) 25° C., 10 min; (2) 37° C., 120 min; (3) 85° C., 5 min; (4) 4° C., termination of the reaction. After the reaction, 20 μL RNase-free ddH2O was added to make up the final volume to 40 μL.
LightCycler 480 fluorescence quantitative PCR instrument was used, and the PCR reaction conditions were: 95° C. , 5 min for pre-denaturation, followed by the PCR amplification cycle: (1) 95° C., 10 s; (2) 55° C., 10 s; (3) 72° C., 20 s; a total of 40 cycles; 40° C. for 10 s in the end to cool down. The forward primer and reverse primer of the amplification reaction were designed and synthesized by Beijing Qing Ke New Industrial Biotechnology Co., Ltd. (U6 F primer: GTGCAGGGTCCGAGGT (SEQ ID NO: 24), PGY-sRNA-26F primer: […] (SEQ ID NO: 34), reverse primer miR all rev: GTGCACGCTCCGAGGT (SEQ ID NO: 26)).
3) The relative expression amount was calculated by the 2-ΔCt method.
The data were represented in the form of mean±SEM. The parameter difference between the experimental group and the control group was evaluated by unpaired t test. The data were statistically analyzed by GraphPad Prism software, and P<0.05 was considered statistically significant.

| Molecule | delivery effect into mouse blood and tissues (heart, spleen, kidney or intestine) compared with POPC | delivery of small RNA (PGY-sRNA-26) into blood | delivery of small RNA (PGY-sRNA-26) into heart | delivery of small RNA (PGY-sRNA-26) into kidney | delivery of small RNA (PGY-sRNA-26) into intestine | delivery of small RNA (PGY-sRNA-26) into spleen |
| --- | --- | --- | --- | --- | --- | --- |
| CC/C=C\C/C=C\C/C=C\CCCCCCCC(=O)OCC(COC(=O)CCCCCCCCCCCCCCC)OC(=O)CCCCCCC/C=C\C/C=C\CCCCC (centres unmarked) [No. 56, Triglyceride (16:0/18:2/ 18:3)] | significantly better than or equivalent to that of POPC | delivers small RNA | delivers small RNA | – | – | – |
| CCCCCCCCCCCCCCCCCC(=O)OCC(COC(=O)CCCCCCCCCCCCCCCCC)OC(=O)CCCCCCCCCCCCCCC [No. 33, 1,3-Stearin-2-Palmitin 1,3-Octadecanoyl-2-Palmitoyl-glycerol] | significantly better than or equivalent to that of POPC | delivers small RNA | delivers small RNA | delivers small RNA | – | – |
| CC/C=C\C/C=C\C/C=C\CCCCCCCC(=O)OCC(COC(=O)CCCCCCC/C=C\CCCCCCCC)OC(=O)CCCCCCC/C=C\C/C=C\CCCCC (centres unmarked) [No. 57, Triglyceride (18:1/18:2/ 18:3)] | significantly better than or equivalent to that of POPC | – | – | delivers small RNA | – | – |
| CCCCCCCCCCCCCCCC(=O)N[C@@H](CO)[C@H](O)CCCCCCCCCCCCC [No. 53, C16 dihydroceramide (d16:0/16:0)] | significantly better than or equivalent to that of POPC | delivers small RNA | delivers small RNA | delivers small RNA | – | – |
| CC/C=C\C/C=C\C/C=C\CCCCCCCC(=O)OCC(COC(=O)CCCCCCCCCCCCCCCCC)OC(=O)CCCCCCC/C=C\C/C=C\CCCCC (centres unmarked) [No. 66, Triglyceride (18:0/18:2/ 18:3)] | significantly better than or equivalent to that of POPC | delivers small RNA | delivers small RNA | – | delivers small RNA | – |
| CCCCCCCCCCCCCCCCCC(=O)N[C@@H](CO)[C@H](O)CCCCCCCCCCCCCCCCC [No. 54, C18 dihydroceramide (d20:0/18:0)] | significantly better than or equivalent to that of POPC | delivers small RNA | – | delivers small RNA | – | – |
| CC/C=C\C/C=C\C/C=C\CCCCCCCC(=O)OCC(O)COC(=O)CCCCCCC/C=C\C/C=C\CCCCC (centres unmarked) [No. 45, 1-Linolein-3-Linolenin] | significantly better than or equivalent to that of POPC | – | delivers small RNA | delivers small RNA | delivers small RNA | delivers small RNA |
| CCCC/C=C\CCCCCCCC(=O)O[C@H](COC(=O)CCCCCCCCCCCCCCCCCCC)COP(=O)(O)OCC[N+](C)(C)C [No. 65, 1-eicosanoyl-2-myristoleoyl-sn-glycero-3-phosphocholine] | significantly better than or equivalent to that of POPC | – | – | delivers small RNA | delivers small RNA | – |
| CCCCCC/C=C\CCCCCCCC(=O)OC[C@H](COP(=O)(O)OCC)OC(=O)CCCCCCC/C=C\CCCCCC [No. 58, 1,2-dipalmitoleoyl-sn-glycero-3-phosphoethanol] | significantly better than or equivalent to that of POPC | – | delivers small RNA | – | delivers small RNA | – |
| Mono- docosadienoin [No. 42] | significantly better than or equivalent to that of POPC | – | – | delivers small RNA | – | delivers small RNA |
| CCCCC/C=C\C/C=C\CCCCCCCC(=O)OC[C@H](CO)OC(=O)CCCCCCC/C=C\C/C=C\CCCCC [No. 35, (2S)-1-hydroxy-3-[(9Z,12Z)-octadeca-9,12-dienoyloxy] propan-2-yl (9Z,12Z)-octadeca-9,12-dienoate] | significantly better than or equivalent to that of POPC | – | delivers small RNA | delivers small RNA | – | – |
| CC/C=C\C/C=C\C/C=C\C/C=C\C/C=C\CCCC(=O)OCC(COC(=O)CCCCCCC/C=C\C/C=C\CCCCC)OC(=O)CCCCCCC/C=C\C/C=C\CCCCC (centres unmarked) [No. 68, Triglyceride (20:5/18:2/ 18:2)] | significantly better than or equivalent to that of POPC | – | delivers small RNA | – | delivers small RNA | delivers small RNA |
| Dilinolenin [No. 70] | significantly better than or equivalent to that of POPC | – | delivers small RNA | – | – | delivers small RNA |
| CCCCCC/C=C\CCCCCCCCCC(=O)OC[C@H](COP(=O)(O)OCC[N+](C)(C)C)OC(=O)CCCCCCC/C=C\CCCCCC (stereo in doubt) [No. 69, 1-vaccenoyl-2-palmitoleoyl-sn-glycero-3-phosphocholine] | significantly better than or equivalent to that of POPC | – | – | delivers small RNA | – | delivers small RNA |
| CCCCCCCCCCCCCCCCCCC[C@@H](O)[C@H](CO)NC(=O)CCCCCCCCCCCCCCCCC [No. 55, C18 dihydroceramide (d22:0/18:0)] | significantly better than or equivalent to that of POPC | delivers small RNA | delivers small RNA | delivers small RNA | – | – |
| CCCCCCCC/C=C\CCCCCCCC(=O)OC[C@H](COP(=O)(O)OCCN(C)C)OC(=O)CCCCCCCCCCCCC [No. 61, 1-oleoyl-2-myristoyl-sn-glycero-3-phospho-ethanolamine-N,N-dimethyl] | significantly better than or equivalent to that of POPC | – | delivers small RNA | delivers small RNA | delivers small RNA | – |
| CC/C=C\C/C=C\C/C=C\C/C=C\C/C=C\CCCC(=O)OCC(COC(=O)CCCCCCC/C=C\CCCCCCCC)OC(=O)CCCCCCC/C=C\C/C=C\CCCCC (centres unmarked) [No. 67, Triglyceride (18:1/18:2 /20:5)] | significantly better than or equivalent to that of POPC | – | delivers small RNA | – | delivers small RNA | delivers small RNA |
